Measured values reported in patent publication US11370763B2, “Compounds and compositions for treating conditions associated with NLRP activity” (Novartis AG, priority 2017, dated 2022).
Where two headings read alike, the source gives them in different places.

Tested on: IL-1β production in PMA-differentiated THP-1 cells
Test: IL-1β production in PMA-differentiated THP-1 cells stimulated with gramicidin (hTHP-1 assay containing 2% fetal bovine serum; Procedures 1-3)
Assay type: cell-based, human
Details: Homo sapiens, THP-1, hTHP-1 assay containing 2% fetal bovine serum, read-out: hTHP-1 IC50 (Average IC50 of compounds in hTHP-1 assay)
How it was run: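 THP-1 cells differentiated with PMA (20 ng/ml, 16-18 h), replated in 2% FBS RPMI (50,000 cells/well), preincubated 1 h with compound (top final 100 μM, 3-fold steps, 0.37% DMSO), then stimulated 2 h with gramicidin (5 μM). Supernatant IL-1β measured by HTRF.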

| Compound | IC50 (given as numeric bound) [µM] | IC50 (class symbols) [µM] |
| --- | --- | --- |
| CC(C)c1cc(C#N)c(F)c(C(C)C)c1CC(=O)N=S(N)(=O)c1sc(C(C)(C)O)cc1F (stereo not shown) [Example 14, 2-(4-cyano-3-fluoro-2,6-diisopropylphenyl)-N-(3-fluoro-5-(2-hydroxypropan-2-yl)thiophen-2-ylsulfonimidoyl)acetamide] |  | 0.008 to 0.04 |
| CC(C)c1cc(F)cc(C2CC2)c1CC(=O)N=S(N)(=O)c1ccc(CN(C)C)cc1 (stereo not shown) [Example 15, 2-(2-cyclopropyl-4-fluoro-6-isopropylphenyl)-N-(4-((dimethylamino)methyl)phenyl-sulfonimidoyl)acetamide] |  | 1 to 5 |
| CC(C)c1cc(F)cc(C2CC2)c1CC(=O)N=S(N)(=O)c1sc(C(C)(C)O)cc1F (stereo not shown) [Example 18, 2-(2-cyclopropyl-4-fluoro-6-isopropylphenyl)-N-(3-fluoro-5-(2-hydroxypropan-2-yl)thiophen-2-ylsulfonimidoyl)acetamide] |  | 0.04 to 0.2 |
| CC(C)c1c(F)c(C#N)cc(C2CC2)c1CC(=O)N=S(N)(=O)c1sc(C(C)(C)O)cc1F (stereo not shown) [Example 19, 2-(4-cyano-6-cyclopropyl-3-fluoro-2-isopropylphenyl)-N-(3-fluoro-5-(2-hydroxypropan-2-yl)thiophen-2-ylsulfonimidoyl)acetamide] |  | 0.008 to 0.04 |
| CC(C)c1cc(Cl)c(F)c(C2CC2)c1CC(=O)N=S(N)(=O)c1sc(C(C)(C)O)cc1F (stereo not shown) [Example 20, 2-(4-chloro-2-cyclopropyl-3-fluoro-6-isopropylphenyl)-N-(3-fluoro-5-(2-hydroxypropan-2-yl)thiophen-2-ylsulfonimidoyl)acetamide] |  | 0.2 to 1 |
| CC(C)c1cc(C#N)cc(C(C)C)c1CC(=O)N=S(N)(=O)c1sc(C(C)(C)O)nc1CO (stereo not shown) [Example 22, 2-(4-cyano-2,6-diisopropylphenyl)-N-(4-(hydroxymethyl)-2-(2-hydroxypropan-2-yl)thiazol-5-ylsulfonimidoyl)acetamide] |  | 0.2 to 1 |
| CC(C)c1cc(C#N)cc(C2CC2)c1CC(=O)N=S(N)(=O)c1sc(C(C)(C)O)nc1CO (stereo not shown) [Example 25, 2-(4-cyano-2-cyclopropyl-6-isopropylphenyl)-N-(4-(hydroxymethyl)-2-(2-hydroxypropan-2-yl)thiazole-5-sulfonimidoyl)acetamide] |  | 1 to 5 |

Further lines, results first:

| IC50 (given as numeric bound) [µM] | IC50 (class symbols) [µM] | Compound |
| --- | --- | --- |
| > 30 |  | CNS(=O)(=NC(=O)Cc1c2c(cc3c1CCC3)CCC2)c1ncc(C(C)(C)O)s1 (stereo not shown) [Example 12, 2-(1,2,3,5,6,7-Hexahydro-s-indacen-4-yl)-N-(5-(2-hydroxypropan-2-yl)-N-methylthiazole-2-sulfonimidoyl)acetamide] |
|  | 0.2 to 1 | CC(C)c1cc(OC(F)F)cc(C(C)C)c1CC(=O)N=S(N)(=O)c1cnc(C(C)(C)O)s1 (stereo not shown) [Example 16, 2-(4-(difluoromethoxy)-2,6-diisopropylphenyl)-N-(2-(2-hydroxypropan-2-yl)thiazol-5-ylsulfonimidoyl)acetamide] |
|  | 0.008 to 0.04 | CC(C)c1cc(F)cc(C(C)C)c1CC(=O)N=S(N)(=O)c1sc(C(C)(C)O)cc1F (stereo not shown) [Example 17, 2-(4-fluoro-2,6-diisopropylphenyl)-N-(3-fluoro-5-(2-hydroxypropan-2-yl)thiophen-2-ylsulfonimidoyl)acetamide] |
|  | 0.04 to 0.2 | CC(C)c1cc(OC(F)F)cc(C(C)C)c1CC(=O)N=S(N)(=O)c1sc(C(C)(C)O)cc1F (stereo not shown) [Example 21, 2-(4-(difluoromethoxy)-2,6-diisopropylphenyl)-N-(3-fluoro-5-(2-hydroxypropan-2-yl)thiophen-2-ylsulfonimidoyl)acetamide] |
|  | 1 to 5 | CC(C)(O)c1nc(CO)c(S(N)(=O)=NC(=O)Cc2c3c(cc4c2CCC4)CCC3)s1 (stereo not shown) [Example 23, 2-(1,2,3,5,6,7-hexahydros-indacen-4-yl)-N-(4-(hydroxymethyl)-2-(2-hydroxypropan-2-yl)thiazol-5-ylsulfonimidoyl)acetamide] |
|  | 0.2 to 1 | COCc1cc(C(C)C)c(CC(=O)N=S(N)(=O)c2sc(C(C)(C)O)nc2CO)c(C(C)C)c1 (stereo not shown) [Example 24, 2-(2,6-diisopropyl-4-(methoxymethyl)phenyl)-N-(4-(hydroxymethyl)-2-(2-hydroxypropan-2-yl)thiazole-5-sulfonimidoyl)acetamide] |
